# Measurements: patent US7595334B2, “Broadspectrum 2-(substituted-amino)-benzoxazole sulfonamide HIV protease inhibitors” (Tibotec Pharmaceuticals Ltd., priority 2001, dated 2009)
# Tests used:
# mock-infected MT4 cells = experiment: in vitro
# Description: (§1) HIV- or mock-infected MT4 cells were incubated for five days in the presence of various concentrations of the inhibitor. […] Cell viability is measured by measuring the concentration of MTT, a yellow, water soluble tetrazolium dye that is converted to a purple, water insoluble formazan in the mitochondria of living cells only. Upon solubilization of the resulting formazan crystals with isopropanol, the absorbance of the solution is monitored at 540 nm. The values correlate directly to the number of living cells remaining in the culture at the completion of the five day incubation. The inhibitory activity of the compound was monitored on the virus-infected cells and was expressed as EC50 and EC90. These values represent the amount of the compound required to protect 50% and 90%, respectively, of the cells from the cytopathogenic effect of the virus. The toxicity of the compound was measured on the mock-infected cells and was expressed as CC50, which represents the concentration of compound required to inhibit the growth of the cells by 50%. The selectivity index (SI) (ratio CC50/EC50) is an indication of the selectivity of the anti-HIV activity of the inhibitor. Wherever results are reported as e.g. pEC50 or pCC50 values, the result is expressed as the negative logarithm of the result expressed as EC50 or CC50 respectively.
# (§2) As a measure of the broad spectrum activity of the present compounds, the fold resistance (FR), defined as FR=EC50(mutant strain)/EC50(HIV-1 strain LAI), was determined.
# [1] = system: HIV strain A (clinically isolated, protease mutations); format: cell-based; conditions: FR=EC50(mutant strain A)/EC50(HIV-1 strain LAI)
# Description: as §1, §2
# [2] = system: HIV strain B (clinically isolated, protease mutations); format: cell-based; conditions: FR=EC50(mutant strain B)/EC50(HIV-1 strain LAI)
# Description: as §1, §2
# [3] = system: HIV strain F (clinically isolated, protease mutations); format: cell-based; conditions: FR=EC50(mutant strain F)/EC50(HIV-1 strain LAI)
# Description: as §1, §2
# [4] = system: HIV strain D (clinically isolated, protease mutations); format: cell-based; conditions: FR=EC50(mutant strain D)/EC50(HIV-1 strain LAI)
# Description: as §1, §2
# [5] = system: HIV strain C (clinically isolated, protease mutations); format: cell-based; conditions: FR=EC50(mutant strain C)/EC50(HIV-1 strain LAI)
# Description: as §1, §2
# [6] = system: HIV strain E (clinically isolated, protease mutations); format: cell-based; conditions: FR=EC50(mutant strain E)/EC50(HIV-1 strain LAI)
# Description: as §1, §2
SMILES,Tox (pCC50) (mock-infected MT4 cells),A (FR) fold resistance [1],B (FR) fold resistance [2],F (FR) fold resistance [3],D (FR) fold resistance [4],C (FR) fold resistance [5],E (FR) fold resistance [6]
CC(C)CN(C[C@@H](O)[C@H](Cc1ccccc1)NC(=O)OCc1cncs1)S(=O)(=O)c1ccc2nc(N(C)C(=O)c3cccnc3)oc2c1 [Compound 32],<4,8.3,1.7,42,8.1,1.1,–
CC(C)CN(C[C@@H](O)[C@H](Cc1ccccc1)NC(=O)OCc1cncs1)S(=O)(=O)c1ccc2nc(NC(=O)C3CCN(C)CC3)oc2c1 [Compound 15],<4,2.3,0.81,7.8,1.7,1.1,1.5
CCOC(=O)Nc1nc2ccc(S(=O)(=O)N(CC(C)C)C[C@@H](O)[C@H](Cc3ccccc3)NC(=O)OCc3cncs3)cc2o1 [Compound 12],<4,8.5,1.4,15,4.8,2.5,2.5
CC(C)CN(C[C@@H](O)[C@H](Cc1ccccc1)NC(=O)OCc1cncs1)S(=O)(=O)c1ccc2nc(N(C)C(=O)c3ccncc3)oc2c1 [Compound 31],<4,9.5,1.3,33,7.6,1.25,–
CC(C)CN(C[C@@H](O)[C@H](Cc1ccccc1)NC(=O)OCc1cncs1)S(=O)(=O)c1ccc2nc(N(C)C(=O)C3CCN(C)CC3)oc2c1 [Compound 28],<4,4.4,0.89,23,2.9,0.51,1.9
CC(C)CN(C[C@@H](O)[C@H](Cc1ccccc1)NC(=O)OCc1cncs1)S(=O)(=O)c1ccc2nc(NC(=O)c3cccnc3)oc2c1 [Compound 18],4.24,2.6,0.85,13,3.0,1.5,2.6
CC(C)CN(C[C@@H](O)[C@H](Cc1ccccc1)NC(=O)OCc1cncs1)S(=O)(=O)c1ccc2nc(NC(=O)c3ccco3)oc2c1 [Compound 14],5.03,5.2,3.8,19,3.7,3.1,3.1
COC(=O)Nc1nc2ccc(S(=O)(=O)N(CC(C)C)C[C@@H](O)[C@H](Cc3ccccc3)NC(=O)OCc3cncs3)cc2o1 [Compound 9],<4,3.5,1.2,14.5,2.7,1.2,3.6
CC(C)CN(C[C@@H](O)[C@H](Cc1ccccc1)NC(=O)OCc1cncs1)S(=O)(=O)c1ccc2nc(NC(=O)C3CCC(=O)N3)oc2c1 (some centres unmarked) [Compound 13],<4,2.3,0.75,5.2,0.91,0.64,0.91
CC(C)CN(C[C@@H](O)[C@H](Cc1ccccc1)NC(=O)OCc1cncs1)S(=O)(=O)c1ccc2nc(NC(=O)CN(C)C)oc2c1 [Compound 19],<4,3.0,0.81,17,2.2,0.91,–
CC(C)CN(C[C@@H](O)[C@H](Cc1ccccc1)NC(=O)OCc1cncs1)S(=O)(=O)c1ccc2nc(N(C)C(=O)C3CCCN(C)C3)oc2c1 (some centres unmarked) [Compound 27],<4,4.4,1.00,24,2.9,0.68,0.85
CC(C)CN(C[C@@H](O)[C@H](Cc1ccccc1)NC(=O)O[C@H]1CO[C@H]2OCC[C@H]21)S(=O)(=O)c1ccc2nc(N(C)CCN3CCCC3)oc2c1 [Compound 8],<4,30,5.8,58,5.8,1.7,–
CC(C)CN(C[C@@H](O)[C@H](Cc1ccccc1)NC(=O)OCc1cncs1)S(=O)(=O)c1ccc2nc(N(C)C(=O)C3CCC(=O)N3)oc2c1 (some centres unmarked) [Compound 30],<4,–,–,–,–,–,–
CC(C)CN(C[C@@H](O)[C@H](Cc1ccccc1)NC(=O)OCc1cncs1)S(=O)(=O)c1ccc2nc(NC(=O)c3ccccn3)oc2c1 [Compound 16],4.25,3.5,0.72,17,3.3,0.69,1.1
CC(C)CN(C[C@@H](O)[C@H](Cc1ccccc1)NC(=O)O[C@H]1CO[C@H]2OCC[C@H]21)S(=O)(=O)c1ccc2nc(NCCN(C)C)oc2c1 [Compound 2],<4,1.1,0.49,2.7,0.32,0.59,0.36
CC(C)CN(C[C@@H](O)[C@H](Cc1ccccc1)NC(=O)OCc1cncs1)S(=O)(=O)c1ccc2nc(N(C)C(=O)c3ccnc(Cl)c3)oc2c1 [Compound 29],<4,8.1,1.4,39,4.9,0.79,0.87
CC(C)CN(C[C@@H](O)[C@H](Cc1ccccc1)NC(=O)OCc1cncs1)S(=O)(=O)c1ccc2nc(NC(=O)CN(C)CCN3CCCC3)oc2c1 [Compound 24],<4,1.9,0.53,6.8,1.6,1.3,1.4
CC(C)CN(C[C@@H](O)[C@H](Cc1ccccc1)NC(=O)OCc1cncs1)S(=O)(=O)c1ccc2nc(N(C)C(=O)c3ccccn3)oc2c1 [Compound 26],4.14,9.3,2.45,59,15,3.4,11
CC(C)CN(C[C@@H](O)[C@H](Cc1ccccc1)NC(=O)OCc1cncs1)S(=O)(=O)c1ccc2nc(NC(=O)[C@H]3CCCN3C)oc2c1 [Compound 35],4.26,13,2.3,48,3.5,1.1,–
CC(=O)Nc1nc2ccc(S(=O)(=O)N(CC(C)C)C[C@@H](O)[C@H](Cc3ccccc3)NC(=O)OCc3cncs3)cc2o1 [Compound 11],<4,42,2.1,74,10,2.5,4.8
CC(C)CN(C[C@@H](O)[C@H](Cc1ccccc1)NC(=O)OCc1cncs1)S(=O)(=O)c1ccc2nc(NC(=O)C3CCCN3C)oc2c1 (some centres unmarked) [Compound 34],4.25,7.2,1.4,25,5.8,1.7,2.3
CC(C)CN(C[C@@H](O)[C@H](Cc1ccccc1)NC(=O)OCc1cncs1)S(=O)(=O)c1ccc2nc(NC(=O)CN3CCN(C)CC3)oc2c1 [Compound 25],4.31,3.9,1.3,18,3.9,3.0,3.9
